Experimental data: PMC12727973, “Off-target autophagy disruption associated with a novel liver toxicity in dogs for a highly basic heterobifunctional protein degrader” (Frontiers in Pharmacology, 2025)

Key:
[1] = system: primary human cholangiocytes; assay: Co-treatment with V-ATPase inhibitor bafilomycin in cholangiocytes
[2] = system: LC3B; assay: LC3B lipidation immunoblot in primary cholangiocytes; format: cell-based, human; conditions: 3 h, 300 μM
Procedure: Cells were treated with compounds at concentrations indicated for 3 h (immunoblotting), 18 h (proteomics), or 48 h (compound uptake) using DMSO vehicle content normalized across wells, up to 0.2%. 48 h was selected for compound uptake experiments to match the cell viability assay conditions; 18 h was selected for the initial assessment of proteome-wide changes leading to and accompanying cytotoxicity; 3 h to observe pathway changes with minimal confounding effects of cytotoxicity. […] Following compound incubation, cells were washed twice with phosphate buffer saline (PBS) and, except for compound uptake studies, lifted off plates with Accumax (Sigma-Aldrich A7089). Cells were pelleted at 700 × g for 5 min, washed with PBS, and pellets were stored at −80 °C for later sample preparation.
Lysate corresponding to 20 µg protein was combined with LDS Buffer (1X final, Thermo #NP0007) and 1 M dithiothreitol stock (100 mM final), heat denatured at 95 °C for 10 min, and loaded into the wells of a NuPage Bis-Tris Mini Protein Gel (Thermo #NP0321). Proteins were separated at 200 V for 30–40 min using a XCell SureLock Mini-Cell (Thermo #EI0001) and MES SDS Running Buffer (Thermo #NP0002).
Proteins were next transferred to a PVDF membrane (Thermo #IB24002) with an iBlot 2 Gel Transfer Device (Invitrogen #IB21001) using the standard 7 min method. […]

| Structure (SMILES) | Cytotoxicity alone ([1]; BafA1 alone, longer timepoints) | Effect on Compound X-induced cytotoxicity ([1]; co-treatment with Compound X, <24 h) | Effect on LC3B lipidation by Compound X ([1]; co-treatment, 100 nM or 2.5 nM BafA1, 3 h) | LC3B-II/LC3B-I [2] |
| --- | --- | --- | --- | --- |
| CO/C1=C\C(C)=C\[C@@H](C)[C@@H](O)[C@@H](C)C/C(C)=C/C=C/[C@H](OC)[C@@H]([C@@H](C)[C@@H](O)[C@H](C)[C@@]2(O)C[C@@H](O)[C@H](C)[C@@H](C(C)C)O2)OC1=O [BafA1, Bafilomycin A1] | cytotoxic at longer timepoints | fully rescued compound-induced cytotoxicity | reduced the LC3B lipidation by Compound X |  |
| CCN(CC)CCCC(C)Nc1ccnc2cc(Cl)ccc12 (stereo not shown) [CQ, chloroquine diphosphate] |  |  |  | 2.1 |
